One experiment concerns C. crescentus CB15N. The experiment in a line: MIC of bacterial growth, macrodilution (Table 2). To be noted: Caulobacter vibrioides, actively growing cells, read-out: MIC. Type of experiment: cell-based, Caulobacter crescentus. The protocol: (§1) Bacterial strains and growth conditions. Luria-Bertani (LB) media (10 g/L tryptone, 10 g/L NaCl, 5 g/L yeast extract, pH 7.2) was used to grow B. subtilis 168, S. aureus FRI100, and P. aeruginosa K1115 strains. For P. aeruginosa PAO1 and K1119 strains and two E. coli BW25113 strains, M8 minimal media (241 mg/L MgSO4, 4 mg/L glucose, 5 mg/L casamino acids, 12.8 g/L Na2HPO4.7H2O, 3 g/L KH2PO4, and 0.5 g/L NaCl) was used. PYE media (2 g/L peptone, 1 g/L yeast extract, 0.8 mM MgSO4, and 0.5 mM CaCl2) was used for culturing C. crescentus cells at 30° C. All cultures were grown at 37° C., except for C. crescentus (30° C.). All cultures were grown while shaking at 200 rpm.
(§2) Determination of the minimum inhibitory concentration (MIC) of bacterial growth. The MIC of various organisms in liquid media was determined using the macrodilution method according to the NCCLS guidelines. For the starting inoculum, cultures were diluted to contain approximately 5×10^5 cells/mL in growth media. To create a two-fold dilution series for the macrodilution technique, each compound was added to the first culture tube (4 mL total volume) at the highest concentration. 2 mL of this culture was diluted into an equal volume of inoculated media (a two-fold dilution). The final volume for each culture was 2 mL.

For experiment [1], the system named is S. aureus FRI 100. Briefly: MIC of bacterial growth, macrodilution (Table 2). To be noted: Staphylococcus aureus, FRI100; S. aureus FRI 100, actively growing cells. Type of experiment: cell-based.
Protocol: Bacterial strains and growth conditions. Luria-Bertani (LB) media (10 g/L tryptone, 10 g/L NaCl, 5 g/L yeast extract, pH 7.2) was used to grow B. subtilis 168, S. aureus FRI100, and P. aeruginosa K1115 strains. […] All cultures were grown at 37° C., except for C. crescentus (30° C.). All cultures were grown while shaking at 200 rpm.
For a further experiment, the system named is B. subtilis 168. Briefly: MIC of bacterial growth, macrodilution (Table 2). Type of experiment: cell-based. Conditions: Bacillus subtilis. How it is done:
as §1, §2

The test system of experiment [2] is S. aureus FRI 100. Briefly: Minimum biofilm inhibitory concentration (bMIC). Type of experiment: cell-based, Staphylococcus aureus. Conditions: S. aureus FRI 100 biofilm. The protocol: Determination of the minimum biofilm inhibitory concentration of growth (bMIC) and biofilm eradication concentration (MBEC). Overnight cultures of C. crescentus and S. aureus were grown and diluted 100-fold into appropriate nutrient media. Aliquots of the diluted suspension were transferred into wells of 96-well plates (150 μL/well). 2-fold serial dilutions were performed for compound-containing wells. For every experiment, three replicates for each compound concentration tested were included. After transferring aliquots of the suspension, the plates were closed with specialized lids that have protruding pins (Nunc STP System), and the plates were sealed using Parafilm®. The plates were incubated in a static incubator at 30° C. (C. crescentus) or 37° C. (S. aureus) for 24 hours. After the cells had formed biofilms on the surface of the pins, the pins were rinsed by dipping them in M2 (C. crescentus) or PBS (S. aureus) solutions. To rinse the pins, clean, sterile 96-well plates were used (aliquots of 200 μL/well); each rinse lasted 10 sec. After washing away planktonic cells loosely bound to biofilms, the pins were inserted into a 96-well plate that was pre-aliquoted with nutrient media containing antibiotics (2-fold dilutions, a final volume of 150 μL/well). The plates were sealed with Parafilm®, and incubated for 17 hours, and the bMIC was measured at the end of the incubation by visual inspection. […] The plates were sealed with Parafilm®, incubated for 24 hours, and the MBEC was measured at the end of the incubation by visual inspection.
Membrane-active compounds are also efficient at eradicating biofilm-associated cells (Table 2). […] To determine the efficacy of antibiotics against biofilms, the minimum biofilm inhibitory concentration (bMIC) and the minimum biofilm eradication concentration (MBEC) were measured. […] After 24 hours of exposure to compounds, the lowest concentration of antibiotic that inhibited planktonic cell growth in the wells (bMIC) was determined.

The next experiment has as its system B. subtilis cells. Briefly: Measurement of ΔΨ using DiOC2, flow cytometry. Type of experiment: cell-based, Bacillus subtilis. To be noted: 20 minutes of treatment, p<0.001. How it is done:
Fluorescence microscopy and flow cytometry to measure ΔΨ. The fluorescent probe, 3,3′-diethyloxacarbocyanine iodide (DiOC2) was used to measure ΔΨ in DMSO and in compound-treated cells. To eliminate the possibility of an interaction between the probe and compounds, the fluorescence intensity of solutions of DiOC2 was measured in the presence and absence of the compounds as described in the art. To measure ΔΨ in B. subtilis cells, flow cytometry was used. Cell suspensions were labeled with 30 μM DiOC2 and filtered through a Nylon filter containing 60-μm diameter pores. The fluorescence of these cells was measured using a BD LSR II flow cytometer. The following instrument settings were used for detection: low flow rate, 488 nm excitation laser, 530/30 nm emission filter for green fluorescence, and 575/26 nm emission filter for red fluorescence. […] First, a gate was drawn around the region where cells were detected in the forward versus side scatter area plot. Gating enabled the exclusion of any non-cellular materials in the sample that the instrument detected. The ratio of red-to-green fluorescence was calculated for each particle within the gate using the software, and the resulting data was exported to GraphPad Prism to create box plots shown in FIG. 5. Statistical parameters were calculated using the Kruskal-Wallis non-parametric one-way analysis of variation (GraphPad InStat). […]
Background: A flow cytometer gives signals particle by particle.

A word on the MIC: it is the lowest concentration that inhibits growth of the organism.

Structures are written as SMILES.

On to `N#CC(C#N)=NNc1cccc(Cl)c1` [CCCP, carbonyl cyanide m-chlorophenyl hydrazone], for which the MIC was 5 µM with C. crescentus CB15N, 1.25 µM in the experiment with S. aureus FRI 100 [1] and 10 µM with B. subtilis 168. This molecule yielded a bMIC in the experiment on S. aureus FRI 100 [2] of 2.5 µM. Moreover, the “ΔΨ (λ576/λ530 of DiOC2)” value in the experiment with B. subtilis cells is given as “significant decrease in λ576/λ530”.

On to `OCC(CO)(CO)NCC(O)Cn1c2ccc(Cl)cc2c2cc(Cl)ccc21` (stereo not shown) [DCAP, 2-((3-(3,6-dichloro-9H-carbazol-9-yl)-2-hydroxypropyl)amino)-2-(hydroxymethyl)propane-1,3-diol], for which the figures for the MIC with C. crescentus CB15N, with S. aureus FRI 100 [1] and with B. subtilis 168 were 15 µM, 50 µM and 32 µM, respectively. This molecule also returned a bMIC with S. aureus FRI 100 [2] of 100 µM. In the experiment with B. subtilis cells, the “ΔΨ (λ576/λ530 of DiOC2)” value is reported as “significant decrease in λ576/λ530”.
